Test results as given in ChEMBL document CHEMBL4325853, “Design, synthesis and antibacterial evaluation of 2,4-disubstituted-6-thiophenyl-pyrimidines” (Eur J Med Chem, 2019).
Activity calls are given as the source filed them.

Experiments:
Staphylococcus aureus [1] = assay: Antibacterial activity against Staphylococcus aureus ATCC 29213 after 18 hrs by broth microdilution method; assay type: functional; conditions: ATCC 29213, 18 h
Enterococcus faecalis [2] = assay: Antibacterial activity against Enterococcus faecalis ATCC 29212 after 18 hrs by broth microdilution method; assay type: functional; conditions: ATCC 29212, 18 h
Escherichia coli = assay: Antibacterial activity against Escherichia coli ATCC 25922 after 18 hrs by broth microdilution method; assay type: functional; conditions: ATCC 25922, 18 h
Staphylococcus aureus [3] = assay: Potency index, ratio of berberine MIC to test compound MIC for Staphylococcus aureus ATCC 29213; assay type: functional
Enterococcus faecium = assay: Potency index, ratio of berberine MIC to test compound MIC for Enterococcus faecium ATCC 49624; assay type: functional
[4] = system: Staphylococcus epidermidis; assay: Potency index, ratio of berberine MIC to test compound MIC for Staphylococcus epidermidis ATCC 12228; assay type: functional
Staphylococcus aureus [5] = assay: Antibacterial activity against methicillin-resistant Staphylococcus aureus ATCC BAA41 after 18 hrs by broth microdilution method; assay type: functional; conditions: ATCC BAA41, 18 h
Staphylococcus aureus [6] = assay: Antibacterial activity against methicillin-resistant Staphylococcus aureus ATCC BAA1720 after 18 hrs by broth microdilution method; assay type: functional; conditions: ATCC BAA1720, 18 h
Enterococcus faecalis [7] = assay: Antibacterial activity against vancomycin-resistant Enterococcus faecalis ATCC 51575 after 18 hrs by broth microdilution method; assay type: functional; conditions: ATCC 51575, 18 h
Staphylococcus aureus [8] = assay: Potency index, ratio of methicillin MIC to test compound MIC for methicillin-resistant Staphylococcus aureus ATCC 33591; assay type: functional
Staphylococcus aureus [9] = assay: Antibacterial activity against methicillin-resistant Staphylococcus aureus isolate 3123 after 18 hrs by broth microdilution method; assay type: functional; conditions: isolate 3123, 18 h
Staphylococcus aureus [10] = assay: Antibacterial activity against methicillin-resistant Staphylococcus aureus isolate 7247 after 18 hrs by broth microdilution method; assay type: functional; conditions: isolate 7247, 18 h
Staphylococcus aureus [11] = assay: Antibacterial activity against methicillin-resistant Staphylococcus aureus isolate 7971 after 18 hrs by broth microdilution method; assay type: functional; conditions: isolate 7971, 18 h
Staphylococcus aureus [12] = assay: Antibacterial activity against methicillin-resistant Staphylococcus aureus isolate 7807 after 18 hrs by broth microdilution method; assay type: functional; conditions: isolate 7807, 18 h
Staphylococcus aureus [13] = assay: Antibacterial activity against methicillin-resistant Staphylococcus aureus isolate 2491 after 18 hrs by broth microdilution method; assay type: functional; conditions: isolate 2491, 18 h
Staphylococcus aureus [14] = assay: Antibacterial activity against methicillin-resistant Staphylococcus aureus isolate 2931 after 18 hrs by broth microdilution method; assay type: functional; conditions: isolate 2931, 18 h
Staphylococcus aureus [15] = assay: Antibacterial activity against methicillin-resistant Staphylococcus aureus isolate 7863 after 18 hrs by broth microdilution method; assay type: functional; conditions: isolate 7863, 18 h
Staphylococcus aureus [16] = assay: Antibacterial activity against methicillin-resistant Staphylococcus aureus isolate 7943 after 18 hrs by broth microdilution method; assay type: functional; conditions: isolate 7943, 18 h
Staphylococcus aureus [17] = assay: Antibacterial activity against methicillin-resistant Staphylococcus aureus isolate 1610 after 18 hrs by broth microdilution method; assay type: functional; conditions: isolate 1610, 18 h
Staphylococcus aureus [18] = assay: Antibacterial activity against methicillin-resistant Staphylococcus aureus isolate 7813 after 18 hrs by broth microdilution method; assay type: functional; conditions: isolate 7813, 18 h
Staphylococcus aureus [19] = assay: Antibacterial activity against methicillin-resistant Staphylococcus aureus isolate 5426 after 18 hrs by broth microdilution method; assay type: functional; conditions: isolate 5426, 18 h
Staphylococcus aureus [20] = assay: Antibacterial activity against methicillin-resistant Staphylococcus aureus isolate 1220 after 18 hrs by broth microdilution method; assay type: functional; conditions: isolate 1220, 18 h
Staphylococcus aureus [21] = assay: Antibacterial activity against methicillin-resistant Staphylococcus aureus isolate 6515 after 18 hrs by broth microdilution method; assay type: functional; conditions: isolate 6515, 18 h
Staphylococcus aureus [22] = assay: Antibacterial activity against methicillin-resistant Staphylococcus aureus isolate 4023 after 18 hrs by broth microdilution method; assay type: functional; conditions: isolate 4023, 18 h
Staphylococcus aureus [23] = assay: Antibacterial activity against methicillin-resistant Staphylococcus aureus isolate 1651 after 18 hrs by broth microdilution method; assay type: functional; conditions: isolate 1651, 18 h
Staphylococcus aureus [24] = assay: Antibacterial activity against methicillin-resistant Staphylococcus aureus isolate 8179 after 18 hrs by broth microdilution method; assay type: functional; conditions: isolate 8179, 18 h
Staphylococcus aureus [25] = assay: Antibacterial activity against methicillin-resistant Staphylococcus aureus isolate 8071 after 18 hrs by broth microdilution method; assay type: functional; conditions: isolate 8071, 18 h
Staphylococcus aureus [26] = assay: Antibacterial activity against methicillin-resistant Staphylococcus aureus isolate 5395 after 18 hrs by broth microdilution method; assay type: functional; conditions: isolate 5395, 18 h
Staphylococcus aureus [27] = assay: Antibacterial activity against methicillin-resistant Staphylococcus aureus isolate 7844 after 18 hrs by broth microdilution method; assay type: functional; conditions: isolate 7844, 18 h
Staphylococcus aureus [28] = assay: Antibacterial activity against methicillin-resistant Staphylococcus aureus isolate 7916 after 18 hrs by broth microdilution method; assay type: functional; conditions: isolate 7916, 18 h
Staphylococcus aureus [29] = assay: Antibacterial activity against methicillin-resistant Staphylococcus aureus isolate 5239 after 18 hrs by broth microdilution method; assay type: functional; conditions: isolate 5239, 18 h
Staphylococcus aureus [30] = assay: Antibacterial activity against methicillin-resistant Staphylococcus aureus isolate 2350 after 18 hrs by broth microdilution method; assay type: functional; conditions: isolate 2350, 18 h
Staphylococcus aureus [31] = assay: Antibacterial activity against methicillin-resistant Staphylococcus aureus isolate 7536 after 18 hrs by broth microdilution method; assay type: functional; conditions: isolate 7536, 18 h
Staphylococcus aureus [32] = assay: Antibacterial activity against methicillin-resistant Staphylococcus aureus isolate 5035 after 18 hrs by broth microdilution method; assay type: functional; conditions: isolate 5035, 18 h
Staphylococcus aureus [33] = assay: Antibacterial activity against methicillin-resistant Staphylococcus aureus isolate 1947 after 18 hrs by broth microdilution method; assay type: functional; conditions: isolate 1947, 18 h
Staphylococcus aureus [34] = assay: Antibacterial activity against methicillin-resistant Staphylococcus aureus isolate 8078 after 18 hrs by broth microdilution method; assay type: functional; conditions: isolate 8078, 18 h
Staphylococcus aureus [35] = assay: Antibacterial activity against methicillin-resistant Staphylococcus aureus isolate 7434 after 18 hrs by broth microdilution method; assay type: functional; conditions: isolate 7434, 18 h
Staphylococcus aureus [36] = assay: Antibacterial activity against methicillin-resistant Staphylococcus aureus isolate 7183 after 18 hrs by broth microdilution method; assay type: functional; conditions: isolate 7183, 18 h
Enterococcus faecalis [37] = assay: Bactericidal activity against vancomycin-resistant Enterococcus faecalis ATCC 700221 after 18 hrs by broth microdilution method; assay type: functional; conditions: ATCC 700221, 18 h
[38] = target: T1, Cell division protein FtsZ (Staphylococcus aureus) (UniProt P0A031); assay: Inhibition of recombinant Staphylococcus aureus FtsZ polymerization at 8 ug/ml by 90 degree light scattering-based fluorescence spectrometric analysis
T1 sequence (whole entry): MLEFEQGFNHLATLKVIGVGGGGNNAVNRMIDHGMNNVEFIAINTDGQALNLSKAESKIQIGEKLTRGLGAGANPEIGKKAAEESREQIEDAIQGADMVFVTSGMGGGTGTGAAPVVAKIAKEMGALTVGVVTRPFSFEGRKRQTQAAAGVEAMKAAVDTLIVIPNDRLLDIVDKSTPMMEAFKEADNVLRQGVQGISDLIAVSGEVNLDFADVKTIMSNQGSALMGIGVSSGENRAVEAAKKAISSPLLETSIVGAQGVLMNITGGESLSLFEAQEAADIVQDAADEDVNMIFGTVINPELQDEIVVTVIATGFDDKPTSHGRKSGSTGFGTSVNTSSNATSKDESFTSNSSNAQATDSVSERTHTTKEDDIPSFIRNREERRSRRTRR

Enterococcus faecalis [39] = assay: Ratio of MBC to MIC for vancomycin-resistant Enterococcus faecalis ATCC 700221; assay type: functional

CC(C)c1ccc(CN2CCCN(CCc3cc(-c4cccs4)nc(-c4ccncc4)n3)CC2)cc1
128 µg/mL: MIC90 (Escherichia coli)
2 µg/mL: MIC90 (Staphylococcus aureus [1]) | MIC90 (Enterococcus faecalis [2]) | MIC90 (Staphylococcus aureus [5]) | MIC90 (Staphylococcus aureus [6]) | MIC90 (Enterococcus faecalis [7]) | MIC90 (Staphylococcus aureus [9]) | MIC90 (Staphylococcus aureus [10]) | MIC90 (Staphylococcus aureus [11]) | MIC90 (Staphylococcus aureus [12]) | MIC90 (Staphylococcus aureus [14]) | MIC90 (Staphylococcus aureus [15]) | MIC90 (Staphylococcus aureus [16]) | MIC90 (Staphylococcus aureus [18]) | MIC90 (Staphylococcus aureus [19]) | MIC90 (Staphylococcus aureus [20]) | MIC90 (Staphylococcus aureus [21]) | MIC90 (Staphylococcus aureus [22]) | MIC90 (Staphylococcus aureus [23]) | MIC90 (Staphylococcus aureus [24]) | MIC90 (Staphylococcus aureus [25]) | MIC90 (Staphylococcus aureus [26]) | MIC90 (Staphylococcus aureus [27]) | MIC90 (Staphylococcus aureus [28]) | MIC90 (Staphylococcus aureus [29]) | MIC90 (Staphylococcus aureus [30]) | MIC90 (Staphylococcus aureus [31]) | MIC90 (Staphylococcus aureus [32]) | MIC90 (Staphylococcus aureus [33]) | MIC90 (Staphylococcus aureus [34]) | MIC90 (Staphylococcus aureus [35]) | MIC90 (Staphylococcus aureus [36])
active: inhibition [38]
2: Ratio (Enterococcus faecalis [39])
>100: Ratio (Staphylococcus aureus [8])
4 µg/mL: MIC90 (Staphylococcus aureus [13]) | MIC90 (Staphylococcus aureus [17]) | MBC (Enterococcus faecalis [37])
50 - 100: Ratio (Staphylococcus aureus [3]) | Ratio (Enterococcus faecium) | Ratio [4]
